Here are results for 18 compounds from PubChem BioAssay AID248 (DTP/NCI, 2004).

The subject of the assay is L1210 leukemia ip in BDF1 mice, survival T/C. As to the kind of experiment: NCI In Vivo Anticancer Drug Screen. Data for tumor model L1210 Leukemia (intraperitoneal) in B6D2F1 (BDF1) mice. To be noted: endpoint: mean survival time, higher = longer survival. The essentials: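 Survival endpoint. Drug-treated group vs vehicle group, expressed as T divided by C. Tumor passaged by transplantation.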

Setting [1] is: dose: 50.0 mg/kg/injection, schedule: Q01DX001 (ip), vehicle: Klucel (hydroxypropylcellulose) (HPC).
[2] abbreviates: dose: 100.0 mg/kg/injection, schedule: Q01DX001 (ip), vehicle: Klucel (hydroxypropylcellulose) (HPC).
[3] abbreviates: dose: 50.0 mg/kg/injection, schedule: Q04DX003 (ip), vehicle: saline.
Where [4] appears, read: dose: 100.0 mg/kg/injection, schedule: Q01DX001 (ip), vehicle: saline.
The mark [5] stands for this setting: dose: 100.0 mg/kg/injection, schedule: Q04DX003 (ip), vehicle: saline.
The mark [6] stands for this setting: dose: 200.0 mg/kg/injection, schedule: Q01DX001 (ip), vehicle: saline.
Setting [7] is: dose: 200.0 mg/kg/injection, schedule: Q04DX003 (ip), vehicle: saline.
Setting [8] is: dose: 50.0 mg/kg/injection, schedule: Q01DX009 (ip), vehicle: saline with Tween-80.
The mark [9] stands for this setting: dose: 100.0 mg/kg/injection, schedule: Q01DX009 (ip), vehicle: saline with Tween-80.
The mark [10] stands for this setting: dose: 100.0 mg/kg/injection, schedule: Q04DX003 (ip), vehicle: saline with Tween-80.
[11] abbreviates: dose: 200.0 mg/kg/injection, schedule: Q01DX009 (ip), vehicle: saline with Tween-80.
Setting [12] is: dose: 200.0 mg/kg/injection, schedule: Q04DX003 (ip), vehicle: saline with Tween-80.
The mark [13] stands for this setting: dose: 400.0 mg/kg/injection, schedule: Q04DX002 (ip), vehicle: saline with Tween-80.
Where [14] appears, read: dose: 400.0 mg/kg/injection, schedule: Q04DX003 (ip), vehicle: saline with Tween-80.
Where [15] appears, read: dose: 100.0 mg/kg/injection, schedule: Q01DX001 (ip), vehicle: saline with Tween-80.
Where [16] appears, read: dose: 200.0 mg/kg/injection, schedule: Q01DX001 (ip), vehicle: saline with Tween-80.

Values joined by “and” are separate entries in the source; they are usually repeats but may differ in a detail not shown here. Identical values can stand only once. Toxic doses and inconclusive results are not listed.

For the compound `Nc1nc(N)c(-c2ccc(Cl)c(Cl)c2)c(COc2ccc(CNS(=O)(=O)c3ccc(S(=O)(=O)F)cc3)cc2Cl)n1`, the T/C was 94 % of control (dose: 25.0 mg/kg/injection, schedule: Q01DX001 (ip), vehicle: Klucel (hydroxypropylcellulose) (HPC)); 94 % of control under setting [1]; 96 % of control under setting [2].

For `CCOc1ccc(/C=N/N=C(N)N)cc1OCC`, the T/C (dose: 62.5 mg/kg/injection, schedule: Q01DX Z (oral), vehicle: saline) was 110 % of control; the T/C (dose: 125.0 mg/kg/injection, schedule: Q01DX Z (oral), vehicle: saline) was 114 % of control; the T/C (dose: 250.0 mg/kg/injection, schedule: Q01DX Z (oral), vehicle: saline) is 91 % of control.

For `N#C/C=C/C=C/C#N`, the T/C is 98 % of control (dose: 75.0 mg/kg/injection, schedule: Q01DX001 (ip), vehicle: other) and 103 % of control (dose: 150.0 mg/kg/injection, schedule: Q01DX001 (ip), vehicle: other).

Turning to `CN(N=O)C(=O)Nc1cccc2cccnc12`, the T/C is, setting by setting: (dose: 6.25 mg/kg/injection, schedule: Q01DX Z (ip), vehicle: carboxymethylcellulose (CMC)) 101 % of control; (dose: 12.5 mg/kg/injection, schedule: Q01DX Z (ip), vehicle: carboxymethylcellulose (CMC)) 106 % of control; (dose: 25.0 mg/kg/injection, schedule: Q01DX Z (ip), vehicle: carboxymethylcellulose (CMC)) 124 % of control.

As to `O=C(c1ccccc1)c1ccc(Br)s1`, the T/C was 96 % of control (dose: 100.0 mg/kg/injection, schedule: Q04DX003 (ip), vehicle: Klucel (hydroxypropylcellulose) (HPC)); 97 % of control (dose: 200.0 mg/kg/injection, schedule: Q04DX003 (ip), vehicle: Klucel (hydroxypropylcellulose) (HPC)); 94 % of control (dose: 400.0 mg/kg/injection, schedule: Q04DX003 (ip), vehicle: Klucel (hydroxypropylcellulose) (HPC)).

As for `O=S(=O)(O)F`, the T/C runs as follows: under setting [3], 96 % of control; under setting [4], 94 % of control; under setting [5], 89 % of control; under setting [6], 94 % of control; under setting [7], 96 % of control.

Regarding `CC1(CCCc2ccc(N)cc2)N=C(N)N=C(N)N1c1ccccc1` (stereo unspecified), the T/C by setting is: under setting [1], 106 % of control; under setting [2], 112 % of control; (dose: 200.0 mg/kg/injection, schedule: Q01DX001 (ip), vehicle: Klucel (hydroxypropylcellulose) (HPC)) 110 % of control.

On to `FC(F)C(F)(F)C(F)(F)C(F)(F)C(F)(F)C(F)(F)COc1nc(OCC(F)(F)C(F)(F)C(F)(F)C(F)(F)C(F)(F)C(F)F)nc(OCC(F)(F)C(F)(F)C(F)(F)C(F)(F)C(F)(F)C(F)F)n1`, for which the T/C (dose: 25.6 mg/kg/injection, schedule: Q04DX002 (ip), vehicle: saline with Tween-80) was 97 % of control; the T/C under setting [8] is 89 % of control; the T/C (dose: 64.0 mg/kg/injection, schedule: Q04DX002 (ip), vehicle: saline with Tween-80) was 91 % of control; the T/C under setting [9] was 92 % of control; the T/C under setting [10] was 91 % of control; the T/C (dose: 160.0 mg/kg/injection, schedule: Q04DX002 (ip), vehicle: saline with Tween-80) is 97 % of control. Besides, the T/C reads like this: under setting [11], 90 % of control; under setting [12], 86 % of control; under setting [13], 91 % of control; under setting [14], 87 % of control.

In the case of `S=P(N1CCCCCC1)(N1CC1)N1CC1`, the T/C runs as follows: (dose: 25.0 mg/kg/injection, schedule: Q01DX Z (ip), vehicle: saline) 110 % of control and 116 % of control; (dose: 50.0 mg/kg/injection, schedule: Q01DX001 (ip), vehicle: saline) 108 % of control; (dose: 50.0 mg/kg/injection, schedule: Q01DX006 (iv), vehicle: saline) 104 % of control; (dose: 50.0 mg/kg/injection, schedule: Q01DX Z (ip), vehicle: saline) 96 % of control; (dose: 50.0 mg/kg/injection, schedule: Q01DX Z (oral), vehicle: saline) 122 % of control; under setting [4], 113 % of control. Further, the T/C (dose: 100.0 mg/kg/injection, schedule: Q01DX006 (iv), vehicle: saline) is 105 % of control; the T/C (dose: 100.0 mg/kg/injection, schedule: Q01DX Z (ip), vehicle: saline) was 170 % of control; the T/C (dose: 100.0 mg/kg/injection, schedule: Q01DX Z (oral), vehicle: saline) is 158 % of control; the T/C under setting [6] is 105 % of control; the T/C (dose: 200.0 mg/kg/injection, schedule: Q01DX006 (iv), vehicle: saline) was 104 % of control; the T/C (dose: 250.0 mg/kg/injection, schedule: Q01DX001 (ip), vehicle: saline) was 112 % of control. The T/C (dose: 500.0 mg/kg/injection, schedule: Q01DX001 (ip), vehicle: saline) was 104 % of control.

Turning to `Nc1cc(=O)n(Cc2ccccc2)c(=O)n1Cc1ccccc1`, the T/C by setting is: (dose: 50.0 mg/kg/injection, schedule: Q01DX001 (ip), vehicle: carboxymethylcellulose (CMC)) 104 % of control; (dose: 100.0 mg/kg/injection, schedule: Q01DX001 (ip), vehicle: carboxymethylcellulose (CMC)) 101 % of control; (dose: 200.0 mg/kg/injection, schedule: Q01DX001 (ip), vehicle: carboxymethylcellulose (CMC)) 111 % of control; (dose: 400.0 mg/kg/injection, schedule: Q01DX001 (ip), vehicle: carboxymethylcellulose (CMC)) 98 % of control.

As for `O=c1[nH]c(=O)n(C2CC=CO2)cc1F` (stereo unspecified), the T/C was 111 % of control under setting [5]; 113 % of control under setting [7]; 117 % of control (dose: 400.0 mg/kg/injection, schedule: Q04DX003 (ip), vehicle: saline).

Consider `Cc1ccc(S(=O)(=O)OCC2C(COS(=O)(=O)c3ccc(C)cc3)C3C=CC2C32CC2)cc1` (stereo unspecified), for which the T/C was 105 % of control (dose: 100.0 mg/kg/injection, schedule: Q04DX002 (ip), vehicle: Klucel (hydroxypropylcellulose) (HPC)); 110 % of control (dose: 200.0 mg/kg/injection, schedule: Q04DX002 (ip), vehicle: Klucel (hydroxypropylcellulose) (HPC)); 102 % of control (dose: 400.0 mg/kg/injection, schedule: Q04DX002 (ip), vehicle: Klucel (hydroxypropylcellulose) (HPC)).

`C=CCC(CC)C(=O)NC(=O)N1CCCc2ccccc21` (stereo unspecified): the T/C reads like this: under setting [15], 91 % of control; under setting [16], 86 % of control.

As for `N#CCCN(C(=O)Nc1ccccc1)C1CCCCC1`, the T/C by setting is: (dose: 100.0 mg/kg/injection, schedule: Q01DX Z (ip), vehicle: methylcellulose (MC)) 101 % of control; (dose: 200.0 mg/kg/injection, schedule: Q01DX Z (ip), vehicle: methylcellulose (MC)) 89 % of control.

Turning to `CCCCC(=O)CCl`, the T/C runs as follows: under setting [4], 103 % of control; under setting [6], 120 % of control; (dose: 400.0 mg/kg/injection, schedule: Q01DX001 (ip), vehicle: saline) 114 % of control.

Take `C1CCC2(CC1)OOC1(CCCCC1)OOC1(CCCC1)OO2`: the T/C reads like this: under setting [8], 104 % of control; under setting [9], 96 % of control; under setting [11], 110 % of control.

`CC(C)CCOC(=O)c1ccccc1OC(=O)Nc1ccc(Cl)cc1[N+](=O)[O-]`: the T/C runs as follows: under setting [15], 102 % of control; under setting [9], 99 % of control and 89 % of control; (dose: 100.0 mg/kg/injection, schedule: Q04DX002 (ip), vehicle: saline with Tween-80) 94 % of control and 103 % of control; under setting [10], 91 % of control; under setting [16], 90 % of control; under setting [11], 86 % of control and 89 % of control. Besides, the T/C runs as follows: (dose: 200.0 mg/kg/injection, schedule: Q04DX002 (ip), vehicle: saline with Tween-80) 97 % of control and 88 % of control; under setting [12], 91 % of control; (dose: 400.0 mg/kg/injection, schedule: Q01DX001 (ip), vehicle: saline with Tween-80) 88 % of control; (dose: 400.0 mg/kg/injection, schedule: Q01DX009 (ip), vehicle: saline with Tween-80) 89 % of control; under setting [13], 100 % of control and 104 % of control; under setting [14], 99 % of control.

As to `CN(C)CCN1c2ccccc2Sc2ccccc21`, the T/C was 97 % of control (dose: 12.5 mg/kg/injection, schedule: Q04DX003 (ip), vehicle: saline); 108 % of control (dose: 25.0 mg/kg/injection, schedule: Q04DX003 (ip), vehicle: saline); 103 % of control under setting [3]; 101 % of control under setting [5].
